Source: patent US10259833B2, “Natural lipids containing non-oxidizable fatty acids” (Bergen Teknologioverføring AS, priority 2013, dated 2019)

Key:
[1] = degradation time in vivo of ω-oxidation-blocked fatty acid analogue; conditions: triple bond at the methyl end blocks ω-oxidation
From the text: ω-oxidation is believed to be the main pathway for degradation of the fatty acid analogues as described with a block in the X position. Fatty acid analogues in which R′ was changed by introducing a triple bond at the methyl end of the fatty acid analogue block ω-oxidation. […] Thus, this modification finds use in embodiments of the technology to potentiate the effects of the β-oxidizable fa acid analogues by further slowing down their breakdown.

[2] = system: acyl-CoA oxidase; conditions: substance alone; cited from earlier work
[3] = TTA alone; cited from earlier work
[4] = rats, 12 weeks; cited from earlier work
[5] = moderate doses, within days of treatment; cited from earlier work
[6] = biological target: T1, PPARα (Homo sapiens, UniProt Q07869); conditions: cited from earlier work
T1 sequence (Q07869 1-468): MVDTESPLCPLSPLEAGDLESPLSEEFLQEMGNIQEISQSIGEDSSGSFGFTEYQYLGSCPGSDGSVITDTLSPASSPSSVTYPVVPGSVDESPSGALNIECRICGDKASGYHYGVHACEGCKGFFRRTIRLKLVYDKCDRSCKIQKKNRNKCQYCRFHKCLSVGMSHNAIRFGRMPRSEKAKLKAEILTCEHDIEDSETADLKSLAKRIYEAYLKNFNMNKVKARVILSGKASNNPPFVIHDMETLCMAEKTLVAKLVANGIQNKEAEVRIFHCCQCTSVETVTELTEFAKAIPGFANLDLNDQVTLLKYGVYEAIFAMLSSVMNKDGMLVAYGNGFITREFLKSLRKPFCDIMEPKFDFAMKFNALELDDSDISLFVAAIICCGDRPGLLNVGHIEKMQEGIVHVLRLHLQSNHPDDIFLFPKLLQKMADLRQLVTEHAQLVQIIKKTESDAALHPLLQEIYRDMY

[7] = biological target: T2, PPARβ (Homo sapiens, UniProt Q03181); conditions: cited from earlier work
T2 sequence (Q03181 1-441): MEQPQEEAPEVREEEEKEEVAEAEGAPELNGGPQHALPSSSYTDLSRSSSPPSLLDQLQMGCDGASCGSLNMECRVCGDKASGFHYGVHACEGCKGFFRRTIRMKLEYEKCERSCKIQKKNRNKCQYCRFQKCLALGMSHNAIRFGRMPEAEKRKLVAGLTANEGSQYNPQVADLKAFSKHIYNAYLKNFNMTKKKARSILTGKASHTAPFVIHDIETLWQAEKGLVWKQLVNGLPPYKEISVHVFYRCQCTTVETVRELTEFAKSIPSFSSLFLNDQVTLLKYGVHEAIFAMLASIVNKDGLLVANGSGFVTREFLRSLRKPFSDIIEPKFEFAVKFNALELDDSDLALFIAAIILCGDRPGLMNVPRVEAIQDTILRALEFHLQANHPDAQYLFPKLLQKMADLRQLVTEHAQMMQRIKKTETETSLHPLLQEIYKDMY

[8] = biological target: T3, PPARγ (Homo sapiens, UniProt P37231); conditions: cited from earlier work
T3 sequence (P37231 1-505): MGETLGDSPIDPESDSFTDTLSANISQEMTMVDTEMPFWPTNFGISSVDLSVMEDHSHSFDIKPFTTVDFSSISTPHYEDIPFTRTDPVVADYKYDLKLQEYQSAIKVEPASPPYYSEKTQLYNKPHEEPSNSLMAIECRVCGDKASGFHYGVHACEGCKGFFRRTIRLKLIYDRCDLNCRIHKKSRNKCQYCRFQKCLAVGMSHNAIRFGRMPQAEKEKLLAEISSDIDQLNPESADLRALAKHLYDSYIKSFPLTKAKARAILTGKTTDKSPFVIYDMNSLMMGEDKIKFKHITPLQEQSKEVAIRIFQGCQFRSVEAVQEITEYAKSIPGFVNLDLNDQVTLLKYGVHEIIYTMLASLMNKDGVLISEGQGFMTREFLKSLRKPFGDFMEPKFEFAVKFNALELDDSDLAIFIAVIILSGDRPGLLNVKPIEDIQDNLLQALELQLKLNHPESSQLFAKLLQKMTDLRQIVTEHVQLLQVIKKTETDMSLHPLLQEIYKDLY

[9] = system: cancer cell lines; conditions: many cancer cell lines; cited from earlier work
[10] = system: interleukin-2; conditions: cited from earlier work
[11] = system: peripheral mononuclear cells; conditions: cited from earlier work
[12] = system: mitochondrial β-oxidation in the liver; conditions: sulfur in 3, 5 or 7 position relative to carboxyl end; cited from earlier work

SMILES: CC#CCCCCCCCCCCCSCC [3-thia-15-heptadecyne]
- degradation time in vivo [1]: substantially increased degradation time

SMILES: CCCCCCCCCCCCCCSCC(=O)O [TTA, tetradecylthioacetic acid]
- effect on acyl-CoA oxidase activity [2]: large increase
- effect on plasma triacylglycerol level [3]: reduces plasma triacylglycerol level
- hepatic and plasma content of monounsaturated fatty acids (mainly oleic acid) [4]: nearly doubled
- polyunsaturated fatty acids (mainly linoleic acid and DHA) [4]: decreased
- plasma cholesterol and triacylglycerol levels [5]: decreases
- PPARα ligand [6]: potent ligands
- PPARβ activation [7]: activate
- PPARγ activation [8]: activate
- proliferation of cancer cell lines [9]: reduce proliferation
- release of interleukin-2 [10]: depressing the release
- PHA stimulated proliferation of peripheral mononuclear cells [11]: suppressing

SMILES: CCCCCCCCCCCCCCCC(=O)O [palmitic acid]
- mitochondrial β-oxidation activity [12]: 0.47
